≈ marks a conversion by molar mass, not a printed value.

The test system of this test is Vaccinia virus. Briefly: Minimum inhibitory concentration required to reduce vaccinia virus induced cytopathogenicity by 50% in primary rabbit kidney cells (PRK). The class given is functional. The conditions noted are these: Orthopoxvirus vaccinia.
Consider `Cn1cc([N+](=O)[O-])cc1C(=O)O`, for which the MIC is > 400 µg/mL.
In the case of `Cn1cc(NC(=O)c2cc([N+](=O)[O-])cn2C)cc1C(=O)NCCC#N`, the MIC is > 10 µg/mL.
Then `Cn1cc([N+](=O)[O-])cc1C(=O)NCCCNCCCCN`, with > 200 µg/mL; and `Cn1c(C(=O)NCCC(=N)N)ccc1[N+](=O)[O-]`, with > 100 µg/mL; and `C[C@H](NC(=O)c1cc(NC(=O)c2cc(NC(=O)CNC(=N)N)cn2C)cn1C)C(=O)N[C@@H](C)C(=O)N[C@@H](C)C(=O)OC(C)(C)C`, with > 100 µg/mL.
Take `CC(NC(=O)C(C)NC(=O)c1cc(NC(=O)c2cc(NC(=O)CNC(=N)N)cn2C)cn1C)C(=O)O` (centres undefined): the MIC is > 400 µg/mL.
Under `Nc1ncnc2c1ccn2[C@@H]1O[C@H](CO)[C@@H](O)[C@H]1O` [TUBERCIDIN] stands 0.07 µg/mL (≈ 0.263 µM).
Then `Cn1cc(NC(=O)c2cc([N+](=O)[O-])cn2C)cc1C(=O)O`, with > 400 µg/mL.
Then `Cn1cc(NC(=O)c2cc([N+](=O)[O-])cn2C)cc1C(=O)NCCC(=N)N`, with > 100 µg/mL; and `CC(NC(=O)c1cc(NC(=O)c2cc(NC(=O)CNC(=N)N)cn2C)cn1C)C(=O)O` (centres undefined), with > 200 µg/mL; and `Cn1cc(NC(=O)c2cc([N+](=O)[O-])cn2C)cc1C(=O)NCCCNCCCCN`, with > 200 µg/mL.
`CC(NC(=O)c1cc(NC(=O)c2cc(NC(=O)CNC(=N)N)cn2C)cn1C)C(=O)OC(C)(C)C` (centres undefined) gave an MIC of 150 µg/mL (≈ 307 µM).
In the case of `NC(=O)c1ncn([C@@H]2O[C@H](CO)[C@@H](O)[C@H]2O)n1` [RIBAVIRIN], the MIC was 2 µg/mL (≈ 8.19 µM).
Then `CC(NC(=O)c1cc(NC(=O)c2cc(NC(=O)CNC(=N)N)cn2C)cn1C)C(=O)NC(C)C(=O)OC(C)(C)C` (centres undefined), with > 200 µg/mL; and `CC(NC(=O)c1cc(NC(=O)c2cc([N+](=O)[O-])cn2C)cn1C)C(=O)OC(C)(C)C` (centres undefined), with > 40 µg/mL.
Under `Nc1ncnc2c1ncn2C[C@H](O)CO` [(S)-DHPA] stands 70 µg/mL (≈ 335 µM); under `C[C@H](NC(=O)c1cc(NC(=O)c2cc([N+](=O)[O-])cn2C)cn1C)C(=O)N[C@@H](C)C(=O)N[C@@H](C)C(=O)OC(C)(C)C`, > 100 µg/mL.
Under `COC(=O)c1cc(NC(=O)c2cc([N+](=O)[O-])cn2C)cn1C` stands > 10 µg/mL; under `Cn1cc([N+](=O)[O-])cc1C(=O)NCCC(=N)N`, > 200 µg/mL.
Turning to `Nc1nccc2c1ncn2[C@@H]1C[C@H](CO)[C@@H](O)[C@H]1O` [3-DEAZAARISTEROMYCIN A], the MIC is 2 µg/mL (≈ 7.57 µM).
For the compound `CC(NC(=O)c1cc(NC(=O)c2cc([N+](=O)[O-])cn2C)cn1C)C(=O)NC(C)C(=O)OC(C)(C)C` (centres undefined), the MIC is > 100 µg/mL.
Under `Cn1c(C(=O)O)ccc1[N+](=O)[O-]` stands > 200 µg/mL; under `Cn1c(C(=O)NCCC#N)ccc1[N+](=O)[O-]`, > 200 µg/mL; under `Cn1cc(NC(=O)CNC(=N)N)cc1C(=O)NCCCNCCCCN`, > 400 µg/mL.
Then `Cn1cc(NC(=O)c2cc(NC(=O)CNC(=N)N)cn2C)cc1C(=O)NCCC(=N)N` [NETROPSIN], with 70 µg/mL (≈ 163 µM); and `Cn1cc(NC(=O)c2cc(NC(=O)CNC(=N)N)cn2C)cc1C(=O)NCCCNCCCCN`, with > 200 µg/mL.
Under `C[C@H](NC(=O)[C@H](C)NC(=O)[C@H](C)NC(=O)c1cc(NC(=O)c2cc(NC(=O)CNC(=N)N)cn2C)cn1C)C(=O)O` stands > 400 µg/mL; under `COC(=O)c1ccc([N+](=O)[O-])n1C`, > 400 µg/mL.
`Cn1cc([N+](=O)[O-])cc1C(=O)NCCC#N`: the MIC was > 200 µg/mL.

The record behind these values is ChEMBL document CHEMBL1124462, “Synthesis, DNA binding, and biological evaluation of synthetic precursors and novel analogues of netropsin” (J Med Chem, 1989).
